Experiments:
[1] = molecular target: T1, Recombinant TDO (Homo sapiens, UniProt P48775); experiment: Biochemical assay for TDO (NFK GreenScreen); details: 50 nM TDO, 200 μM L-tryptophan
T1 construct: Recombinant TDO (Seegers, N., et al.) and all other assay components were diluted in TDO reaction buffer
Description: Biochemical Assay for TDO
The NFK GreenScreen™ assay technology was also used to determine the inhibitory activity of compounds on TDO (Seegers, N., et al., J. Biol. Screen. 19: 1266; 2014). Compounds were serially diluted in DMSO and finally in TDO reaction buffer, consisting of 100 mM NaH2PO4, pH 7.0, supplemented with 0.02% Tween-20 (cat. No. P7949; Sigma Aldrich). Recombinant TDO (Seegers, N., et al.) and all other assay components were diluted in TDO reaction buffer. 10 μl of compound solution and 20 μl of enzyme solution supplemented with 200 μM ascorbic acid were combined in the well of a black 384-well plate (cat. no. 3573; Corning, Corning, N.Y., USA), and incubated for 60 min at room temperature. Subsequently, 10 μl of 0.8 mM of the substrate L-tryptophan was added, i.e., the final concentration of L-tryptophan was 200 μM. The DMSO concentration in the assay was 0.3%. The concentration of TDO was 50 nM. Incubation was continued for 15 min at room temperature. Then, 10 μl of NFK Green™ (NTRC, Oss, The Netherlands) was added, the plate was sealed, and the reaction was developed for 3 hours at 37° C. To determine the production of N-formyl kynurenine (NFK), the seal was removed and fluorescence was read on an EnVision multimode reader (Perkin Elmer, Waltham, Mass., USA). IC50 were calculated using XLfit™ software (ID Business Solutions, Ltd., Surrey, U.K.).

[2] = molecular target: CYP2D6 (Homo sapiens, UniProt P10635); experiment: P450-Glo CYP2D6 Luc-IP assay
[3] = molecular target: CYP3A4 (Homo sapiens, UniProt P08684); experiment: P450-Glo CYP3A4 luciferin isopropylacetal (Luc-IP) assay
Chain of CYP3A4 (P08684 whole entry): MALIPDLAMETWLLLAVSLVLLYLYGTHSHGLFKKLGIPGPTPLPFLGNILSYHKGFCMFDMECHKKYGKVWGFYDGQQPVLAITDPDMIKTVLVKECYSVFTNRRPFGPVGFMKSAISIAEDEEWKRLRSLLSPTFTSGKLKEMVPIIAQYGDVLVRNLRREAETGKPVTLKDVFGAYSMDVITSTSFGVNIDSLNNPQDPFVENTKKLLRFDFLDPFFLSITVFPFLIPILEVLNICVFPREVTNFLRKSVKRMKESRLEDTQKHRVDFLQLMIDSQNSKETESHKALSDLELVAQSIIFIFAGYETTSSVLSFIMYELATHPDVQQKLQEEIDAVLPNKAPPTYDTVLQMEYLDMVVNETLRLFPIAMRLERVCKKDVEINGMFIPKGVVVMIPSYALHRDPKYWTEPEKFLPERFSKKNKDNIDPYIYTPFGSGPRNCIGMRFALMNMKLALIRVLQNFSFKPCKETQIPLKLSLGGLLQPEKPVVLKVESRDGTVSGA

T1 sequence (P48775 whole entry): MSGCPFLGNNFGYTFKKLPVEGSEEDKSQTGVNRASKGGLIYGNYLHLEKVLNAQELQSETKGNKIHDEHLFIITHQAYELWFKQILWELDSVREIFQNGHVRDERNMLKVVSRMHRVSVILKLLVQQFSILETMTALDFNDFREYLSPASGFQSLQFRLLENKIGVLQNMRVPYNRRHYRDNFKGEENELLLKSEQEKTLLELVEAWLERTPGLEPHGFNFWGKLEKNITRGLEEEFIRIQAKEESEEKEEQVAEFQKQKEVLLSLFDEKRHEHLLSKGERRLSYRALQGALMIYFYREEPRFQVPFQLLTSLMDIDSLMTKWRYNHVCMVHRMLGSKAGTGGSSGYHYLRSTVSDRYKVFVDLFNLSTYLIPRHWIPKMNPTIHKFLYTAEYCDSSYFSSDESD
Chain of CYP2D6 (P10635 whole entry): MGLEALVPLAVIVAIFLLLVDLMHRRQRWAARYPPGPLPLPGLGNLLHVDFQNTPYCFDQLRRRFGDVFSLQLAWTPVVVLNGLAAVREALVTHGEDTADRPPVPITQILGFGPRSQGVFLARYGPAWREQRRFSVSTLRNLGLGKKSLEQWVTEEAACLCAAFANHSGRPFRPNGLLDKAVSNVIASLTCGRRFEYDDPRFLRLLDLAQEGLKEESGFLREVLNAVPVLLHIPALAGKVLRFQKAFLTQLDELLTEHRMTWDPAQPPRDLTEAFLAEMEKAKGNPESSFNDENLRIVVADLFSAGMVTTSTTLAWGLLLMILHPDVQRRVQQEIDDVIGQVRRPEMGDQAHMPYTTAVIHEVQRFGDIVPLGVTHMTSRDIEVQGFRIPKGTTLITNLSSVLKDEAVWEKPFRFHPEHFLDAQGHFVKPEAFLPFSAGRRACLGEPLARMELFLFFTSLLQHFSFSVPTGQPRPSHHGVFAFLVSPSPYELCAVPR

## C[C@H](CO)NC(=O)c1ccc(-c2c[nH]c3ccc(F)cc23)cc1 [Example 37, 4-(5-Fluoro-1H-indol-3-yl)-N-[(1R)-2-hydroxy-1-methyl-ethyl]benzamide]
[1]
  IC50: < 1 µM
[2]
  IC50: > 10 µM
[3]
  IC50: > 10 µM

## Cc1cc(C(=O)N[C@@H](C)CO)ccc1-c1c[nH]c2cc(F)ccc12 [Example 126, 4-(6-Fluoro-1H-indol-3-yl)-N-[(1S)-2-hydroxy-1-methyl-ethyl]-3-methyl-benzamide]
[1]
  IC50: 1 to 5 µM
[2]
  IC50: 5 to 10 µM
[3]
  IC50: 5 to 10 µM

## CC(C)(O)CC(=O)Nc1ccc(-c2c[nH]c3cc(F)ccc23)cc1 [Example 35, N-[4-(6-fluoro-1H-indol-3-yl)phenyl]-3-hydroxy-3-methyl-butanamide]
[1]
  IC50: < 1 µM
[2]
  IC50: > 10 µM
[3]
  IC50: > 10 µM

## O=C(NOC(CO)CO)c1ccc(-c2c[nH]c3cc(F)ccc23)cc1 [Example 65, 4-(6-Fluoro-1H-indol-3-yl)-N-[2-hydroxy-1-(hydroxymethyl)ethoxy]benzamide]
[1]
  IC50: < 1 µM
[2]
  IC50: > 10 µM
[3]
  IC50: 5 to 10 µM

## Cc1cc(C(=O)N[C@H](C)CO)ccc1-c1c[nH]c2cc(F)ccc12 [Example 128, 4-(6-Fluoro-1H-indol-3-yl)-N-[(1R)-2-hydroxy-1-methyl-ethyl]-3-methyl-benzamide]
[1]
  IC50: 1 to 5 µM
[2]
  IC50: 5 to 10 µM
[3]
  IC50: 5 to 10 µM

## CN(C)CCCNC(=O)c1ccc(-c2c[nH]c3ccc(F)cc23)cc1 [Example 38, N-[3-(dimethylamino)propyl]-4-(5-fluoro-1H-indol-3-yl)benzamide]
[1]
  IC50: < 1 µM
[2]
  IC50: > 10 µM
[3]
  IC50: > 10 µM

## COC(=O)[C@@H](C)NC(=O)c1ccc(-c2c[nH]c3cc(F)ccc23)cc1 [Example 18, Methyl (2R)-2-[[4-(6-fluoro-1H-indol-3-yl)benzoyl]amino]propanoate]
[1]
  IC50: < 1 µM
[2]
  IC50: > 10 µM
[3]
  IC50: > 10 µM

## CCOC(=O)N1CCCC(NC(=O)c2ccc(-c3c[nH]c4cc(F)ccc34)cc2)C1 (centres unmarked) [Example 121, Ethyl 3-[[4-(6-fluoro-1H-indol-3-yl)benzoyl]amino]piperidine-1-carboxylate]
[1]
  IC50: < 1 µM
[2]
  IC50: > 10 µM
[3]
  IC50: > 10 µM

## O=C(NC[C@H]1CCNC1)c1ccc(-c2c[nH]c3cc(F)ccc23)cc1 [Example 91, 4-(6-Fluoro-1H-indol-3-yl)-N-[[(3S)-pyrrolidin-3-yl]methyl]benzamide]
[1]
  IC50: < 1 µM
[2]
  IC50: > 10 µM
[3]
  IC50: 5 to 10 µM

## CCNC(=O)Nc1ccc(-c2c[nH]c3cc(F)ccc23)cc1 [Example 6, 1-Ethyl-3-[4-(6-fluoro-1H-indol-3-yl)phenyl]urea]
[1]
  IC50: 1 to 5 µM
[2]
  IC50: > 10 µM
[3]
  IC50: > 10 µM

## COCC(C)C(=O)Nc1ccc(-c2c[nH]c3cc(F)ccc23)cc1 (centres unmarked) [Example 33, N-[4-(6-fluoro-1H-indol-3-yl)phenyl]-3-methoxy-2-methyl-propanamide]
[1]
  IC50: < 1 µM
[2]
  IC50: > 10 µM
[3]
  IC50: > 10 µM

## O=C(N[C@H]1CCCNC1)c1ccc(-c2c[nH]c3ccc(F)cc23)cc1 [Example 41, 4-(5-Fluoro-1H-indol-3-yl)-N-[(3S)-3-piperidyl]benzamide]
[1]
  IC50: < 1 µM
[2]
  IC50: > 10 µM
[3]
  IC50: > 10 µM

## COC(=O)CNC(=O)c1ccc(-c2c[nH]c3cc(F)ccc23)cc1 [Example 138, Methyl 2-[[4-(6-fluoro-1H-indol-3-yl)benzoyl]amino]acetate]
[1]
  IC50: < 1 µM
[2]
  IC50: > 10 µM
[3]
  IC50: > 10 µM

## CN1CC(C(=O)Nc2ccc(-c3c[nH]c4cc(F)ccc34)cc2)CCC1=O (centres unmarked) [Example 108, N-[4-(6-fluoro-1H-indol-3-yl)phenyl]-1-methyl-6-oxo-piperidine-3-carboxamide]
[1]
  IC50: 1 to 5 µM
[2]
  IC50: > 10 µM
[3]
  IC50: > 10 µM

## C[C@H](O)CC(=O)Nc1ccc(-c2c[nH]c3cc(F)ccc23)cc1 [Example 34, (3S)—N-[4-(6-fluoro-1H-indol-3-yl)phenyl]-3-hydroxy-butanamide]
[1]
  IC50: < 1 µM
[2]
  IC50: > 10 µM
[3]
  IC50: > 10 µM

## O=C(NCC1CC(F)(F)C1)c1ccc(-c2c[nH]c3cc(F)ccc23)cc1 [Example 9, N-[(3,3-difluorocyclobutyl)methyl]-4-(6-fluoro-1H-indol-3-yl)benzamide]
[1]
  IC50: < 1 µM
[2]
  IC50: > 10 µM
[3]
  IC50: > 10 µM

## O=C(Nc1ccc(-c2c[nH]c3cc(F)ccc23)cc1)C1CCC1(F)F (centres unmarked) [Example 101, 2,2-Difluoro-N-[4-(6-fluoro-1H-indol-3-yl)phenyl]cyclobutanecarboxamide]
[2]
  IC50: > 10 µM
[3]
  IC50: > 10 µM

## CC(C)NC(=S)N1CCC[C@@H](CNC(=O)c2ccc(-c3c[nH]c4cc(F)ccc34)cc2)C1 [Example 92, 4-(6-Fluoro-1H-indol-3-yl)-N-[[(3S)-1-(isopropylcarbamothioyl)-3-piperidyl]methyl]benzamide]
[1]
  IC50: 1 to 5 µM
[2]
  IC50: > 10 µM
[3]
  IC50: > 10 µM

## O=C(CC1(O)CCCC1)Nc1ccc(-c2c[nH]c3cc(F)ccc23)cc1 [Example 98, N-[4-(6-fluoro-1H-indol-3-yl)phenyl]-2-(1-hydroxycyclopentyl)acetamide]
[1]
  IC50: < 1 µM
[2]
  IC50: > 10 µM
[3]
  IC50: > 10 µM

## NCCNC(=O)c1ccc(-c2c[nH]c3cc(F)ccc23)cc1 [Example 90, N-(2-aminoethyl)-4-(6-fluoro-1H-indol-3-yl)benzamide]
[1]
  IC50: < 1 µM
[2]
  IC50: > 10 µM
[3]
  IC50: > 10 µM

## CCNCC(=O)Nc1ccc(-c2c[nH]c3cc(F)ccc23)cc1 [Example 29, 2-(Ethylamino)-N-[4-(6-fluoro-1H-indol-3-yl)phenyl]acetamide]
[1]
  IC50: < 1 µM
[2]
  IC50: > 10 µM
[3]
  IC50: > 10 µM

## C[C@@H](CO)NC(=O)c1ccc(-c2c[nH]c3ccc(F)cc23)cc1 [Example 40, 4-(5-Fluoro-1H-indol-3-yl)-N-[(1S)-2-hydroxy-1-methyl-ethyl]benzamide]
[1]
  IC50: < 1 µM
[2]
  IC50: > 10 µM
[3]
  IC50: > 10 µM

## Cc1cc(CC(=O)Nc2ccc(-c3c[nH]c4cc(F)ccc34)cc2)no1 [Example 99, N-[4-(6-Fluoro-/H-indol-3-yl)phenyl]-2-(5-methylisoxazol-3-yl)acetamide]
[1]
  IC50: 1 to 5 µM
[2]
  IC50: > 10 µM
[3]
  IC50: > 10 µM

## O=C(CC1COC1)Nc1ccc(-c2c[nH]c3cc(F)ccc23)cc1 [Example 30, N-[4-(6-fluoro-1H-indol-3-yl)phenyl]-2-(oxetan-3-yl)acetamide]
[1]
  IC50: < 1 µM
[2]
  IC50: > 10 µM
[3]
  IC50: > 10 µM

## CNC(=O)Nc1ccc(-c2c[nH]c3cc(F)ccc23)cc1 [Example 5, 1-[4-(6-Fluoro-1H-indol-3-yl)phenyl]-3-methyl-urea]
[1]
  IC50: < 1 µM
[2]
  IC50: > 10 µM
[3]
  IC50: > 10 µM

## CN(C)C(=O)Nc1ccc(-c2c[nH]c3cc(F)ccc23)cc1 [Example 7, 3-[4-(6-Fluoro-1H-indol-3-yl)phenyl]-1,1-dimethyl-urea]
[1]
  IC50: 1 to 5 µM
[2]
  IC50: > 10 µM
[3]
  IC50: > 10 µM

## O=C(NCC1(O)CCCCC1)c1ccc(-c2c[nH]c3cc(F)ccc23)cc1 [Example 89, 4-(6-Fluoro-1H-indol-3-yl)-N-[(1-hydroxycyclohexyl)methyl]benzamide]
[1]
  IC50: 1 to 5 µM
[2]
  IC50: > 10 µM
[3]
  IC50: > 10 µM

## C[C@H](NC(=O)c1ccc(-c2c[nH]c3cc(F)ccc23)cc1)C(C)(C)C [Example 88, 4-(6-Fluoro-1H-indol-3-yl)-N-[(1S)-1,2,2-trimethylpropyl]benzamide]
[1]
  IC50: 1 to 5 µM
[2]
  IC50: > 10 µM
[3]
  IC50: > 10 µM
